Assay results from the NIST ThermoML archive (doi:10.1021/je034062r).

Experiment: xn = mol fraction of the nth substance listed
Settings: for mass density: Liquid; for surface tension liquid-gas: Pendant drop shape

C1CCCCC1 [cyclohexane] + CCCCCCC
Settings | mass density [kg/m3] | surface tension liquid-gas [mN/m]
283.15 K, x1 = 0.1022 | 699.2 | –
283.15 K, x1 = 0.2022 | 706.5 | –
283.15 K, x1 = 0.3078 | 714.6 | –
283.15 K, x1 = 0.401 | 722.3 | –
283.15 K, x1 = 0.4984 | 730.8 | –
283.15 K, x1 = 0.7003 | 750.8 | –
283.15 K, x1 = 0.8054 | 761.5 | –
283.15 K, x1 = 0.898 | 774.2 | –
283.15 K, x1 = 1 | 787.9 | –
287.81 K, x1 = 0.1022 | – | 20.91
287.81 K, x1 = 0.2022 | – | 21.31
287.81 K, x1 = 0.3078 | – | 21.65
287.81 K, x1 = 0.401 | – | 21.88
287.81 K, x1 = 0.4984 | – | 22.27
287.81 K, x1 = 0.6002 | – | 22.62
287.81 K, x1 = 0.7003 | – | 23.08
287.81 K, x1 = 0.8054 | – | 23.84
287.81 K, x1 = 0.898 | – | 24.39
287.81 K, x1 = 1 | – | 25.34
288.15 K, x1 = 0.1022 | 695 | –
288.15 K, x1 = 0.2022 | 702.2 | –
288.15 K, x1 = 0.3078 | 710.4 | –
288.15 K, x1 = 0.401 | 717.9 | –
288.15 K, x1 = 0.4984 | 726.5 | –
288.15 K, x1 = 0.7003 | 746.4 | –
288.15 K, x1 = 0.8054 | 758 | –
288.15 K, x1 = 0.898 | 769.7 | –
288.15 K, x1 = 1 | 783.2 | –
293.15 K, x1 = 0.1022 | 690.8 | –
293.15 K, x1 = 0.2022 | 698 | –
293.15 K, x1 = 0.3078 | 706.1 | –
293.15 K, x1 = 0.401 | 713.6 | –
293.15 K, x1 = 0.4984 | 722.2 | –
293.15 K, x1 = 0.7003 | 742 | –
293.15 K, x1 = 0.8054 | 753.5 | –
293.15 K, x1 = 0.898 | 765.1 | –
293.15 K, x1 = 1 | 778.6 | –
297.82 K, x1 = 0.1022 | – | 19.95
297.82 K, x1 = 0.2022 | – | 20.25
297.82 K, x1 = 0.3078 | – | 20.52
297.82 K, x1 = 0.401 | – | 20.9
297.82 K, x1 = 0.4984 | – | 21.21
297.82 K, x1 = 0.6002 | – | 21.57
297.82 K, x1 = 0.7003 | – | 22.14
297.82 K, x1 = 0.8054 | – | 22.72
297.82 K, x1 = 0.898 | – | 23.32
297.82 K, x1 = 1 | – | 24.2
298.15 K, x1 = 0.1022 | 686.5 | –
298.15 K, x1 = 0.2022 | 693.6 | –
298.15 K, x1 = 0.3078 | 701.7 | –
298.15 K, x1 = 0.401 | 709.2 | –
298.15 K, x1 = 0.4984 | 717.8 | –
298.15 K, x1 = 0.6002 | 725.6 | –
298.15 K, x1 = 0.7003 | 737.5 | –
298.15 K, x1 = 0.8054 | 749 | –
298.15 K, x1 = 0.898 | 760.5 | –
298.15 K, x1 = 1 | 773.9 | –
303.15 K, x1 = 0.1022 | 682.2 | –
303.15 K, x1 = 0.2022 | 689.3 | –
303.15 K, x1 = 0.3078 | 697.4 | –
303.15 K, x1 = 0.401 | 704.8 | –
303.15 K, x1 = 0.4984 | 713.3 | –
303.15 K, x1 = 0.6002 | 722 | –
303.15 K, x1 = 0.7003 | 733 | –
303.15 K, x1 = 0.8054 | 744.4 | –
303.15 K, x1 = 0.898 | 755.8 | –
303.15 K, x1 = 1 | 769.2 | –
307.86 K, x1 = 0.1022 | – | 18.91
307.86 K, x1 = 0.2022 | – | 19.25
307.86 K, x1 = 0.3078 | – | 19.58
307.86 K, x1 = 0.401 | – | 19.87
307.86 K, x1 = 0.4984 | – | 20.19
307.86 K, x1 = 0.6002 | – | 20.53
307.86 K, x1 = 0.7003 | – | 21.06
307.86 K, x1 = 0.8054 | – | 21.64
307.86 K, x1 = 0.898 | – | 22.18
307.86 K, x1 = 1 | – | 23.02
308.15 K, x1 = 0.1022 | 677.8 | –
308.15 K, x1 = 0.2022 | 685 | –
308.15 K, x1 = 0.3078 | 693 | –
308.15 K, x1 = 0.401 | 700.4 | –
308.15 K, x1 = 0.4984 | 708.9 | –
308.15 K, x1 = 0.6002 | 718.1 | –
308.15 K, x1 = 0.7003 | 728.4 | –
308.15 K, x1 = 0.8054 | 739.8 | –
308.15 K, x1 = 0.898 | 751.2 | –
308.15 K, x1 = 1 | 764.4 | –
313.15 K, x1 = 0.1022 | 673.5 | –
313.15 K, x1 = 0.2022 | 680.6 | –
313.15 K, x1 = 0.3078 | 688.6 | –
313.15 K, x1 = 0.401 | 696 | –
313.15 K, x1 = 0.4984 | 704.4 | –
313.15 K, x1 = 0.6002 | 713.8 | –
313.15 K, x1 = 0.7003 | 723.9 | –
313.15 K, x1 = 0.8054 | 735.2 | –
313.15 K, x1 = 0.898 | 746.5 | –
313.15 K, x1 = 1 | 759.6 | –
317.86 K, x1 = 0.1022 | – | 17.91
317.86 K, x1 = 0.2022 | – | 18.36
317.86 K, x1 = 0.3078 | – | 18.53
317.86 K, x1 = 0.401 | – | 18.82
317.86 K, x1 = 0.4984 | – | 19.16
317.86 K, x1 = 0.6002 | – | 19.55
317.86 K, x1 = 0.7003 | – | 20.01
317.86 K, x1 = 0.8054 | – | 20.56
317.86 K, x1 = 0.898 | – | 21.07
317.86 K, x1 = 1 | – | 21.84
318.15 K, x1 = 0.1022 | 669 | –
318.15 K, x1 = 0.2022 | 676.1 | –
318.15 K, x1 = 0.3078 | 684.1 | –
318.15 K, x1 = 0.401 | 691.5 | –
318.15 K, x1 = 0.4984 | 699.9 | –
318.15 K, x1 = 0.6002 | 709.3 | –
318.15 K, x1 = 0.7003 | 719.3 | –
318.15 K, x1 = 0.8054 | 730.6 | –
318.15 K, x1 = 0.898 | 741.8 | –
318.15 K, x1 = 1 | 754.8 | –
323.15 K, x1 = 0.1022 | 664.6 | –
323.15 K, x1 = 0.2022 | 671.7 | –
323.15 K, x1 = 0.3078 | 679.6 | –
323.15 K, x1 = 0.401 | 686.9 | –
323.15 K, x1 = 0.4984 | 695.4 | –
323.15 K, x1 = 0.6002 | 704.7 | –
323.15 K, x1 = 0.7003 | 714.7 | –
323.15 K, x1 = 0.8054 | 725.9 | –
323.15 K, x1 = 0.898 | 737.1 | –
323.15 K, x1 = 1 | 750 | –
327.88 K, x1 = 0.1022 | – | 16.83
327.88 K, x1 = 0.2022 | – | 17.05
327.88 K, x1 = 0.3078 | – | 17.41
327.88 K, x1 = 0.401 | – | 17.52
327.88 K, x1 = 0.4984 | – | 17.99
327.88 K, x1 = 0.6002 | – | 18.44
327.88 K, x1 = 0.7003 | – | 18.95
327.88 K, x1 = 0.8054 | – | 19.48
327.88 K, x1 = 0.898 | – | 19.98
327.88 K, x1 = 1 | – | 20.71
328.15 K, x1 = 0.1022 | 660.1 | –
328.15 K, x1 = 0.2022 | 667.2 | –
328.15 K, x1 = 0.3078 | 675.1 | –
328.15 K, x1 = 0.401 | 682.4 | –
328.15 K, x1 = 0.4984 | 691 | –
328.15 K, x1 = 0.6002 | 700.1 | –
328.15 K, x1 = 0.7003 | 710 | –
328.15 K, x1 = 0.8054 | 721.2 | –
328.15 K, x1 = 0.898 | 732.3 | –
328.15 K, x1 = 1 | 745.2 | –
333.15 K, x1 = 0.1022 | 655.5 | –
333.15 K, x1 = 0.3078 | 670.5 | –
333.15 K, x1 = 0.401 | 677.8 | –
333.15 K, x1 = 0.4984 | 686.2 | –
333.15 K, x1 = 0.6002 | 695.5 | –
333.15 K, x1 = 0.7003 | 705.3 | –
333.15 K, x1 = 0.8054 | 716.5 | –
333.15 K, x1 = 0.898 | 727.5 | –
333.15 K, x1 = 1 | 740.3 | –
